Tests used:
[1] = Pharmacokinetic and distribution experiment (radioactivity in blood and excised organs after tail vein injection); assay type: in vivo; conditions: ddy mice; for Adrenal gland/Blood ratio / Adrenal gland/Kidney ratio / Adrenal gland/Liver ratio / Radioactivity Distribution, Adrenal gland / Radioactivity Distribution, Blood / Radioactivity Distribution, Heart / Radioactivity Distribution, Kidney / Radioactivity Distribution, Large intestine / Radioactivity Distribution, Liver / Radioactivity Distribution, Lung / Radioactivity Distribution, Pancreas / Radioactivity Distribution, Small intestine / Radioactivity Distribution, Spleen / Radioactivity Distribution, Stomach / Radioactivity Distribution, Thyroid: tail vein injection, 18.5 kBq (0.5 μCi)
Outline: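 [^125I]PAY15 or PAY21 at 18.5 kBq (0.5 μCi), or [^18F]PAY27 or PAY54 at 14.8 kBq […], in saline given i.v. by tail vein to 6-week-old ddy mice (n=5). Blood and weighed organs (thyroid for 125I, thigh bone for 18F) counted for radioactivity at 5–120 min.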

[2] = Stability evaluation in plasma (HPLC, RI detector); assay type: in vitro ADME; conditions: CD-1 mouse plasma, 37° C., incubation for 120 minutes
Procedure: The stability of [^125I]PAY21 in plasma was evaluated by the following procedures: Blood was collected from the heart of each CD-1 mouse. Plasma was separated by centrifugation and passed through Cosmonice filter (diameter: 4 mm, pore size: 0.45 μm, Nacalai Tesque, Inc.). 350 μL of the plasma thus filtered was incubated at 37° C. for 15 minutes. Then, 30 μL of a saline solution of [^125I]PAY21 (18.5 kBq (0.5 μCi)) was added thereto. After incubation for 120 minutes, a 100 μL aliquot of the mixture was separated and added to methanol (500 μL) under ice cooling. The mixture was further centrifuged, and the supernatant (400 μL) was analyzed by HPLC. The HPLC conditions were the same as those shown in Example 6.

[3] = Pharmacokinetic and distribution experiment using CD-1 (ICR) mice instead of ddy mice; assay type: in vivo; conditions: similar operation using CD-1 (ICR) mice instead of ddy mice

O=C1CCc2cc(-c3cncc([125I])c3)cc3c2N1CC3 [[^125I]PAY21, 8-(5-[^125I]iodopyridin-3-yl)-1,2,5,6-tetrahydro-4H-pyrrolo[3,2,1-ij]quinolin-4-one]
radioactivity accumulation in the adrenal gland compared with blood and periadrenal tissues ([1]; at an early stage after administration): high radioactivity accumulation | Adrenal gland/Blood ratio ([1]; 5 min): 1.71 ± 0.08 | Adrenal gland/Kidney ratio ([1]; 5 min): 1.52 ± 0.19 | Adrenal gland/Liver ratio ([1]; 5 min): 1.13 ± 0.14 | Radioactivity Distribution, Adrenal gland ([1]; 5 min): 9.7 ± 1.4 % dose/g | Radioactivity Distribution, Blood ([1]; 5 min): 5.7 ± 0.8 % dose/g | Radioactivity Distribution, Heart ([1]; 5 min): 3.6 ± 0.4 % dose/g | Radioactivity Distribution, Kidney ([1]; 5 min): 6.4 ± 0.4 % dose/g | Radioactivity Distribution, Large intestine ([1]; 5 min): 2.3 ± 0.4 % dose/g | Radioactivity Distribution, Liver ([1]; 5 min): 8.6 ± 1.1 % dose/g | Radioactivity Distribution, Lung ([1]; 5 min): 5.6 ± 0.7 % dose/g | Radioactivity Distribution, Pancreas ([1]; 5 min): 4.0 ± 0.5 % dose/g | Radioactivity Distribution, Small intestine ([1]; 5 min): 6.0 ± 1.0 % dose/g | Radioactivity Distribution, Spleen ([1]; 5 min): 3.9 ± 0.4 % dose/g | Radioactivity Distribution, Stomach ([1]; 5 min): 10.1 ± 1.6 % dose/g | Radioactivity Distribution, Thyroid ([1]; 5 min): 114.1 ± 22.4 % dose/g | Adrenal gland/Blood ratio ([1]; 15 min): 0.75 ± 0.17 | Adrenal gland/Kidney ratio ([1]; 15 min): 0.90 ± 0.24 | Adrenal gland/Liver ratio ([1]; 15 min): 1.12 ± 0.36 | Radioactivity Distribution, Adrenal gland ([1]; 15 min): 3.6 ± 1.0 % dose/g | Radioactivity Distribution, Blood ([1]; 15 min): 4.7 ± 0.4 % dose/g | Radioactivity Distribution, Heart ([1]; 15 min): 2.1 ± 0.3 % dose/g | Radioactivity Distribution, Kidney ([1]; 15 min): 4.0 ± 0.6 % dose/g | Radioactivity Distribution, Large intestine ([1]; 15 min): 2.2 ± 0.1 % dose/g | Radioactivity Distribution, Liver ([1]; 15 min): 3.2 ± 0.4 % dose/g | Radioactivity Distribution, Lung ([1]; 15 min): 4.1 ± 0.3 % dose/g | Radioactivity Distribution, Pancreas ([1]; 15 min): 2.6 ± 0.3 % dose/g | Radioactivity Distribution, Small intestine ([1]; 15 min): 8.1 ± 2.2 % dose/g | Radioactivity Distribution, Spleen ([1]; 15 min): 3.0 ± 0.4 % dose/g | Radioactivity Distribution, Stomach ([1]; 15 min): 28.4 ± 3.3 % dose/g | Radioactivity Distribution, Thyroid ([1]; 15 min): 332.2 ± 43.1 % dose/g | Adrenal gland/Blood ratio ([1]; 30 min): 0.76 ± 0.14 | Adrenal gland/Kidney ratio ([1]; 30 min): 0.82 ± 0.10 | Adrenal gland/Liver ratio ([1]; 30 min): 1.26 ± 0.20 | Radioactivity Distribution, Adrenal gland ([1]; 30 min): 2.8 ± 0.3 % dose/g | Radioactivity Distribution, Blood ([1]; 30 min): 3.7 ± 0.4 % dose/g | Radioactivity Distribution, Heart ([1]; 30 min): 1.5 ± 0.1 % dose/g | Radioactivity Distribution, Kidney ([1]; 30 min): 3.4 ± 0.4 % dose/g | Radioactivity Distribution, Large intestine ([1]; 30 min): 2.1 ± 0.2 % dose/g | Radioactivity Distribution, Liver ([1]; 30 min): 2.2 ± 0.2 % dose/g | Radioactivity Distribution, Lung ([1]; 30 min): 3.4 ± 0.3 % dose/g | Radioactivity Distribution, Pancreas ([1]; 30 min): 2.4 ± 0.5 % dose/g | Radioactivity Distribution, Small intestine ([1]; 30 min): 10.3 ± 2.8 % dose/g | Radioactivity Distribution, Spleen ([1]; 30 min): 2.5 ± 0.6 % dose/g | Radioactivity Distribution, Stomach ([1]; 30 min): 40.7 ± 3.5 % dose/g | Radioactivity Distribution, Thyroid ([1]; 30 min): 1570.0 ± 165.0 % dose/g | Adrenal gland/Blood ratio ([1]; 60 min): 0.54 ± 0.17 | Adrenal gland/Kidney ratio ([1]; 60 min): 0.65 ± 0.21 | Adrenal gland/Liver ratio ([1]; 60 min): 1.15 ± 0.38 | Radioactivity Distribution, Adrenal gland ([1]; 60 min): 1.9 ± 0.8 % dose/g | Radioactivity Distribution, Blood ([1]; 60 min): 3.4 ± 0.6 % dose/g | Radioactivity Distribution, Heart ([1]; 60 min): 1.3 ± 0.2 % dose/g | Radioactivity Distribution, Kidney ([1]; 60 min): 2.9 ± 0.6 % dose/g | Radioactivity Distribution, Large intestine ([1]; 60 min): 2.0 ± 0.4 % dose/g | Radioactivity Distribution, Liver ([1]; 60 min): 1.6 ± 0.3 % dose/g | Radioactivity Distribution, Lung ([1]; 60 min): 3.1 ± 0.6 % dose/g | Radioactivity Distribution, Pancreas ([1]; 60 min): 1.7 ± 0.3 % dose/g | Radioactivity Distribution, Small intestine ([1]; 60 min): 10.9 ± 2.9 % dose/g | Radioactivity Distribution, Spleen ([1]; 60 min): 1.9 ± 0.4 % dose/g | Radioactivity Distribution, Stomach ([1]; 60 min): 39.4 ± 9.1 % dose/g | Radioactivity Distribution, Thyroid ([1]; 60 min): 1318.7 ± 800.8 % dose/g | Adrenal gland/Blood ratio ([1]; 120 min): 0.71 ± 0.32 | Adrenal gland/Kidney ratio ([1]; 120 min): 0.81 ± 0.44 | Adrenal gland/Liver ratio ([1]; 120 min): 1.33 ± 0.64 | Radioactivity Distribution, Adrenal gland ([1]; 120 min): 1.8 ± 0.7 % dose/g | Radioactivity Distribution, Blood ([1]; 120 min): 2.6 ± 0.3 % dose/g | Radioactivity Distribution, Heart ([1]; 120 min): 1.0 ± 0.2 % dose/g | Radioactivity Distribution, Kidney ([1]; 120 min): 2.4 ± 0.6 % dose/g | Radioactivity Distribution, Large intestine ([1]; 120 min): 10.0 ± 4.8 % dose/g | Radioactivity Distribution, Liver ([1]; 120 min): 1.4 ± 0.2 % dose/g | Radioactivity Distribution, Lung ([1]; 120 min): 2.6 ± 0.7 % dose/g | Radioactivity Distribution, Pancreas ([1]; 120 min): 1.6 ± 0.1 % dose/g | Radioactivity Distribution, Small intestine ([1]; 120 min): 4.8 ± 1.3 % dose/g | Radioactivity Distribution, Spleen ([1]; 120 min): 1.7 ± 0.1 % dose/g | Radioactivity Distribution, Stomach ([1]; 120 min): 38.6 ± 6.5 % dose/g | Radioactivity Distribution, Thyroid ([1]; 120 min): 4664.0 ± 1419.1 % dose/g | peak area of intact compound after incubation in plasma [2]: approximately 60% | radioactivity distribution in CD-1 (ICR) mice compared with ddy mice [3]: no difference between the species
